According to PMC8606745 (Frontiers in Microbiology, 2021):
Read-outs that look alike come from different tables or passages of the source. Square brackets hold non-standard residues; d marks the D form. Peptide text beside a SMILES is read from it. * marks the point of attachment. Lauroyl = CCCCCCCCCCCC(=O)*; Butyryl = CCCC(=O)*

Assays:
[1] = tested on: X. fastidiosa subsp. fastidiosa IVIA 5387.2; format: cell-based, Xylella fastidiosa
[2] = tested on: X. fastidiosa subsp. fastidiosa IVIA 5387.2; conditions: for log reduction of cell viability: 3 h, 50 μM

Compound | Bactericidal activity: Reduction in viability (Log N0/N) [2] [Log N0/N] | Biofilm formation Level (antibiofilm activity) [1] | Biofilm formation Ratio (treatment/NTC) [1] | Planktonic cells Ratio (treatment/NTC) [1] | further results
CC[C@H](C)[C@H](NC(=O)[C@H](C)NC(=O)[C@H](Cc1c[nH]cn1)NC(=O)[C@@H]1CCCN1C(=O)[C@@H](NC(=O)[C@H](CC(C)C)NC(=O)[C@H](CO)NC(=O)[C@H](Cc1ccccc1)NC(=O)[C@H](CC(C)C)NC(=O)[C@@H](N)Cc1ccccc1)[C@@H](C)CC)C(=O)NCC(=O)NCC(=O)N[C@@H](CC(C)C)C(=O)N[C@H](C(=O)N[C@@H](CO)C(=O)N[C@@H](C)C(=O)N[C@@H](Cc1ccccc1)C(=O)N[C@@H](CCCCN)C(N)=O)[C@@H](C)CC [AamAP1] | 1.38 ± 0.12 | – | – | – | Effect on X. fastidiosa growth in the antibiofilm test [1]: affected X. fastidiosa’s growth; Hemolysis (horse erythrocytes; 150 µM): 100.00 ± 1.3%; Hemolysis (horse erythrocytes; 250 µM): 100.0 ± 4.1%; Hemolysis (horse erythrocytes; 375 µM): 100.0 ± 4.4%
CC[C@H](C)[C@H](NC(=O)[C@H](C)NC(=O)[C@H](CCCNC(=N)N)NC(=O)[C@@H]1CCCN1C(=O)[C@@H](NC(=O)[C@H](CC(C)C)NC(=O)[C@H](CO)NC(=O)[C@H](Cc1ccccc1)NC(=O)[C@H](CC(C)C)NC(=O)[C@@H](N)Cc1ccccc1)[C@@H](C)CC)C(=O)NCC(=O)NCC(=O)N[C@@H](CC(C)C)C(=O)N[C@H](C(=O)N[C@@H](CO)C(=O)N[C@@H](C)C(=O)N[C@@H](Cc1ccccc1)C(=O)N[C@@H](CCCCN)C(N)=O)[C@@H](C)CC [AamAP-R] | 0.78 ± 0.01 | – | – | – | Effect on X. fastidiosa growth in the antibiofilm test [1]: affected X. fastidiosa’s growth
CC[C@H](C)[C@H](NC(=O)[C@H](C)NC(=O)[C@H](CCCCN)NC(=O)[C@@H]1CCCN1C(=O)[C@@H](NC(=O)[C@H](CC(C)C)NC(=O)[C@H](CO)NC(=O)[C@H](Cc1ccccc1)NC(=O)[C@H](CC(C)C)NC(=O)[C@@H](N)Cc1ccccc1)[C@@H](C)CC)C(=O)NCC(=O)NCC(=O)N[C@@H](CC(C)C)C(=O)N[C@H](C(=O)N[C@@H](CO)C(=O)N[C@@H](C)C(=O)N[C@@H](Cc1ccccc1)C(=O)N[C@@H](CCCCN)C(N)=O)[C@@H](C)CC [AamAP-S1] | 2.45 ± 0.09 | – | – | – | Effect on X. fastidiosa growth in the antibiofilm test [1]: affected X. fastidiosa’s growth; log reduction of cell viability [2]: 2-3 log
CCCC(=O)N[C@H](C(=O)N[C@@H](CC(C)C)C(=O)N1CCC[C@H]1C(=O)N[C@H](Cc1ccccc1)C(=O)N[C@@H](CCCCN)C(=O)N[C@H](Cc1ccccc1)C(=O)N1CCC[C@H]1C(=O)N[C@H](Cc1ccccc1)C(=O)N[C@H](Cc1ccccc1)C(=O)N1CCC[C@H]1C(=O)N[C@H](Cc1ccccc1)C(=O)N[C@@H](CCCNC(=N)N)C(=O)N[C@@H](CCCNC(=N)N)C(N)=O)[C@@H](C)CC [BP526] (Butyryl-ILP[dF]K[dF]P[dF][dF]P[dF]RR-NH2) | – | – | – | – | Biofilm formation Level (antibiofilm activity) ([1]; 50 µM): High (key: High: high antibiofilm activity (ratio of biofilm formation from 0.01 to 0.2); Moderate: moderate activity (ratio from 0.29 to 0.47); Low: low activity (ratio from 0.72 to 0.77)); Biofilm formation Ratio (treatment/NTC) ([1]; 50 µM): 0.17 ± 0.02; Planktonic cells Ratio (treatment/NTC) ([1]; 50 µM): 2.17 ± 0.02; Bactericidal activity: Reduction in viability (Log N0/N) ([2]; 50 µM): 0.56 ± 0.03 Log N0/N; Hemolysis (horse erythrocytes; 150 µM): 8.3 ± 0.7%; Hemolysis (horse erythrocytes; 250 µM): 20.4 ± 0.7%; Hemolysis (horse erythrocytes; 375 µM): 46.8 ± 3.3%
CCCCCCCCCCCC(=O)N[C@H](C(=O)N[C@@H](CC(C)C)C(=O)N1CCC[C@H]1C(=O)N[C@H](Cc1ccccc1)C(=O)N[C@@H](CCCCN)C(=O)N[C@H](Cc1ccccc1)C(=O)N1CCC[C@H]1C(=O)N[C@H](Cc1ccccc1)C(=O)N[C@H](Cc1ccccc1)C(=O)N1CCC[C@H]1C(=O)N[C@H](Cc1ccccc1)C(=O)N[C@@H](CCCNC(=N)N)C(=O)N[C@@H](CCCNC(=N)N)C(N)=O)[C@@H](C)CC [BP528] (Lauroyl-ILP[dF]K[dF]P[dF][dF]P[dF]RR-NH2) | – | – | – | – | Biofilm formation Level (antibiofilm activity) ([1]; 50 µM): High (key: High: high antibiofilm activity (ratio of biofilm formation from 0.01 to 0.2); Moderate: moderate activity (ratio from 0.29 to 0.47); Low: low activity (ratio from 0.72 to 0.77)); Biofilm formation Ratio (treatment/NTC) ([1]; 50 µM): 0.03 ± 0.01; Planktonic cells Ratio (treatment/NTC) ([1]; 50 µM): 0.99 ± 0.06; Bactericidal activity: Reduction in viability (Log N0/N) ([2]; 50 µM): 0.61 ± 0.12 Log N0/N; Hemolysis (horse erythrocytes; 150 µM): 92.1 ± 5.7%; Hemolysis (horse erythrocytes; 250 µM): 96.6 ± 3.1%; Hemolysis (horse erythrocytes; 375 µM): 99.1 ± 8.0%
CC[C@H](C)[C@H](NC(=O)CN)C(=O)NCC(=O)N[C@@H](CCCCN)C(=O)N[C@@H](Cc1ccccc1)C(=O)N[C@@H](CC(C)C)C(=O)N[C@@H](Cc1c[nH]cn1)C(=O)N[C@@H](CO)C(=O)N[C@@H](C)C(=O)N[C@@H](CCCCN)C(N)=O [Magainin 2(1-10)] (H-GIGKFLHSAK-NH2) | 0.00 ± 0.06 | Low (key: High: high antibiofilm activity (ratio of biofilm formation from 0.01 to 0.2); Moderate: moderate activity (ratio from 0.29 to 0.47); Low: low activity (ratio from 0.72 to 0.77)) | 0.77 ± 0.02 | 1.67 ± 0.07 | –
CC[C@H](C)[C@H](NC(=O)[C@H](CCCNC(=N)N)NC(=O)[C@H](Cc1ccccc1)NC(=O)[C@H](CCC(N)=O)NC(=O)[C@@H](N)CCCCN)C(=O)N[C@@H](CCCNC(=N)N)C(=O)N[C@H](C(=O)N[C@@H](CCCNC(=N)N)C(=O)N[C@H](C(N)=O)C(C)C)C(C)C [Peptide 1029] (H-KQFRIRVRV-NH2) | 1.18 ± 0.08 | High (key: High: high antibiofilm activity (ratio of biofilm formation from 0.01 to 0.2); Moderate: moderate activity (ratio from 0.29 to 0.47); Low: low activity (ratio from 0.72 to 0.77)) | 0.20 ± 0.01 | 1.71 ± 0.04 | –
CC[C@H](C)[C@H](NC(=O)[C@H](CCCNC(=N)N)NC(=O)[C@H](Cc1ccccc1)NC(=O)[C@H](CCC(N)=O)NC(=O)[C@@H](N)C(C)C)C(=O)N[C@@H](CCCNC(=N)N)C(=O)N[C@H](C(=O)N[C@@H](CCCNC(=N)N)C(=O)N[C@H](C(=O)N[C@H](C(=O)N[C@H](C(=O)N[C@@H](CCCNC(=N)N)C(=O)N[C@@H](CCCCN)C(N)=O)[C@@H](C)CC)C(C)C)[C@@H](C)CC)C(C)C [Peptide 1036] (H-VQFRIRVRIVIRK-NH2) | – | High (key: High: high antibiofilm activity (ratio of biofilm formation from 0.01 to 0.2); Moderate: moderate activity (ratio from 0.29 to 0.47); Low: low activity (ratio from 0.72 to 0.77)) | – | 2.16 ± 0.06 | log reduction [2]: 3.48 log
CC[C@@H](C)[C@@H](NC(=O)[C@H](N)CCCNC(=N)N)C(=O)N[C@@H](C(=O)N[C@H](Cc1c[nH]c2ccccc12)C(=O)N[C@@H](C(=O)N[C@H](CCCNC(=N)N)C(=O)N[C@@H](C(=O)N[C@H](CCCNC(=N)N)C(=O)N[C@H](CCCNC(=N)N)C(=O)N[C@H](Cc1c[nH]c2ccccc12)C(=O)N[C@H](Cc1ccccc1)C(=O)N[C@@H](C(N)=O)C(C)C)[C@H](C)CC)C(C)C)C(C)C [RIJK2] (H-[dR][dI][dV][dW][dV][dR][dI][dR][dR][dW][dF][dV]-NH2) | – | High (key: High: high antibiofilm activity (ratio of biofilm formation from 0.01 to 0.2); Moderate: moderate activity (ratio from 0.29 to 0.47); Low: low activity (ratio from 0.72 to 0.77)) | – | 1.43 ± 0.09 | –
CC[C@H](C)[C@H](NC(=O)[C@H](Cc1c[nH]c2ccccc12)NC(=O)[C@H](CCCCN)NC(=O)[C@H](CCCCN)NC(=O)[C@@H](NC(=O)[C@H](CCCNC(=N)N)NC(=O)[C@H](CCCNC(=N)N)NC(=O)[C@@H](NC(=O)[C@@H](N)Cc1c[nH]c2ccccc12)[C@@H](C)CC)[C@@H](C)CC)C(=O)N[C@@H](CCCNC(=N)N)C(=O)N[C@@H](CCCNC(=N)N)C(=O)N[C@H](C(=O)N[C@@H](Cc1c[nH]cn1)C(=O)N[C@@H](CCCCN)C(N)=O)C(C)C [RR2-NH2] (H-WIRRIKKWIRRVHK-NH2) | 1.43 ± 0.12 | High (key: High: high antibiofilm activity (ratio of biofilm formation from 0.01 to 0.2); Moderate: moderate activity (ratio from 0.29 to 0.47); Low: low activity (ratio from 0.72 to 0.77)) | 0.13 ± 0.01 | 2.13 ± 0.07 | –
CC[C@H](C)[C@H](NC(=O)[C@H](CCCNC(=N)N)NC(=O)[C@H](CCCNC(=N)N)NC(=O)[C@H](CC(C)C)NC(=O)[C@@H](N)Cc1c[nH]c2ccccc12)C(=O)N[C@@H](CCCCN)C(=O)N[C@@H](C)C(=O)N[C@@H](Cc1c[nH]c2ccccc12)C(=O)N[C@@H](CC(C)C)C(=O)N[C@@H](CCCNC(=N)N)C(=O)N[C@@H](CCCNC(=N)N)C(=O)N[C@@H](CCCCN)C(=O)N[C@@H](CCCNC(=N)N)C(=O)N[C@@H](CCCCN)C(N)=O [RR3-NH2] (H-WLRRIKAWLRRKRK-NH2) | 0.89 ± 0.09 | Moderate (key: High: high antibiofilm activity (ratio of biofilm formation from 0.01 to 0.2); Moderate: moderate activity (ratio from 0.29 to 0.47); Low: low activity (ratio from 0.72 to 0.77)) | 0.29 ± 0.01 | 1.66 ± 0.09 | –
CC[C@H](C)[C@H](NC(=O)[C@H](CCCNC(=N)N)NC(=O)[C@H](CCCNC(=N)N)NC(=O)[C@H](CC(C)C)NC(=O)[C@H](Cc1c[nH]c2ccccc12)NC(=O)[C@H](C)NC(=O)[C@H](CCCCN)NC(=O)[C@@H](NC(=O)[C@H](CCCNC(=N)N)NC(=O)[C@H](CCCNC(=N)N)NC(=O)[C@H](CC(C)C)NC(=O)[C@@H](N)Cc1c[nH]c2ccccc12)[C@@H](C)CC)C(=O)N[C@@H](CCCCN)C(=O)N[C@@H](C)C(N)=O [RR4-NH2] | 2.08 ± 0.09 | High (key: High: high antibiofilm activity (ratio of biofilm formation from 0.01 to 0.2); Moderate: moderate activity (ratio from 0.29 to 0.47); Low: low activity (ratio from 0.72 to 0.77)) | 0.20 ± 0.01 | 1.84 ± 0.05 | log reduction of cell viability [2]: 2-3 log
Cecropin B | – | – | – | – | Bactericidal activity: Reduction in viability (Log N0/N) ([2]; 3.1 µM): 2.13 ± 0.10 Log N0/N; Bactericidal activity: Reduction in viability (Log N0/N) ([2]; 12.5 μM): 3.19 ± 0.06 Log N0/N; log reduction ([2]; 12.5 μM): 3.19 log; Bactericidal activity: Reduction in viability (Log N0/N) ([2]; 50 µM): 4.00 ± 0.10 Log N0/N
